The text below walks through data of patent US9505726B2, “Substituted biphenyl amides as P2X3 and P2X2/3 antagonists” (Roche Palo Alto LLC, priority 2009, dated 2016).

The structures appear in SMILES notation.

This assay has as its target T1, rat P2X3 receptor (Rattus norvegicus, UniProt P49654).
T1 construct: expressed in transfected cells; host or cells: CHO-K1
T1 sequence (P49654 1-397): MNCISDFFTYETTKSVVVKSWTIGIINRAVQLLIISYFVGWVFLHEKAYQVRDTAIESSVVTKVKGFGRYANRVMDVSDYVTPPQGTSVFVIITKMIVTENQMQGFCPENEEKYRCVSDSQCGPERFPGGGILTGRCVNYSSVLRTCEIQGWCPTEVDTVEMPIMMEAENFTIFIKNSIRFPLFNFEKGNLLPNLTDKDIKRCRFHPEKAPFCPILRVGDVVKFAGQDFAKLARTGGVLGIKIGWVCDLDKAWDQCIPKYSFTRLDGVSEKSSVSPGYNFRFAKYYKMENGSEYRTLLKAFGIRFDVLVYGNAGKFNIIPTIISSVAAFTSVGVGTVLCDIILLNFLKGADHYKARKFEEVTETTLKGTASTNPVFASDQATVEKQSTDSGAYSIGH
Briefly: P2X3 FLIPR (Fluorometric Imaging Plate Reader) assay. The format is cell-based. The conditions noted are these: CHO-K1 cells transfected with cloned rat P2X3, agonist α,β-meATP 1 μM, Fluo-3 AM calcium fluorescence. On the procedure: CHO-K1 cells were transfected with cloned rat P2X3 or human P2X2/3 receptor subunits and passaged in flasks. 18-24 hours before the FLIPR experiment, cells were released from their flasks, centrifuged, and resuspended in nutrient medium at 2.5×10^5 cells/ml. The cells were aliquoted into black-walled 96-well plates at a density of 50,000 cells/well and incubated overnight in 5% CO2 at 37° C. On the day of the experiment, cells were washed in FLIPR buffer (calcium- and magnesium-free Hank's balanced salt solution, 10 mM HEPES, 2 mM CaCl2, 2.5 mM probenecid; FB). Each well received 100 μl FB and 100 μl of the fluorescent dye Fluo-3 AM [2 μM final conc.]. After a 1 hour dye loading incubation at 37° C., the cells were washed 4 times with FB, and a final 75 μl/well FB was left in each well.
Test compounds (dissolved in DMSO at 10 mM and serially diluted with FB) or vehicle were added to each well (25 μl of a 4× solution) and allowed to equilibrate for 20 minutes at room temperature. The plates were then placed in the FLIPR and a baseline fluorescence measurement (excitation at 488 nm and emission at 510-570 nm) was obtained for 10 seconds before a 100 μl/well agonist or vehicle addition. The agonist was a 2X solution of α,β-meATP producing a final concentration of 1 μM (P2X3) or 5 μM (P2X2/3). Fluorescence was measured for an additional 2 minutes at 1 second intervals after agonist addition. A final addition of ionomycin (5 μM, final concentration) was made to each well of the FLIPR test plate to establish cell viability and maximum fluorescence of dye-bound cytosolic calcium. Peak fluorescence in response to the addition of α,β-meATP (in the absence and presence of test compounds) was measured and inhibition curves generated using nonlinear regression. PPADS, a standard P2X antagonist, was used as a positive control.

For the molecule `CC(=O)N(c1cc(C(=O)NC(C)c2cnccn2)cc(-c2ccc(C)cc2)c1)c1ccncn1` (stereo not shown) [Compound 24, 5-(Acetyl-pyrimidin-4-yl-amino)-4′-methyl-biphenyl-3-carboxylic acid (1-pyrazin-2-yl-ethyl)-amide], the “P2X3 (pIC50 values for the P2X3 receptor)” value worked out at 6.31.

Take `CCN(C(C)=O)c1cc(C(=O)NC(C)c2cnccn2)cc(-c2ccc(C)cc2)c1` (stereo not shown) [Compound 21, 5-(Acetyl-ethyl-amino)-4′-methyl-biphenyl-3-carboxylic acid (1-pyrazin-2-yl-ethyl)-amide]: the “P2X3 (pIC50 values for the P2X3 receptor)” value was determined as 7.28.

As for `Cc1ccc(-c2cc(C(=O)N[C@@H](C)CO)cc(N(C)C(=O)C(C)C)c2)cc1` [Compound 40, 5-(Isobutyryl-methyl-amino)-4′-methyl-biphenyl-3-carboxylic acid ((S)-2-hydroxy-1-methyl-ethyl)-amide], the “P2X3 (pIC50 values for the P2X3 receptor)” value is given as 8.3.

On to `CCC(=O)N(c1cc(C(=O)NC(C)c2cnccn2)cc(-c2ccc(C)cc2)c1)c1ccncn1` (stereo not shown) [Compound 25, 4′-Methyl-5-(propionyl-pyrimidin-4-yl-amino)-biphenyl-3-carboxylic acid (1-pyrazin-2-yl-ethyl)-amide], for which the “P2X3 (pIC50 values for the P2X3 receptor)” value is listed as 6.16.

As to `CCN(C(=O)C(C)C)c1cc(C(=O)N[C@@H](C)CO)cc(-c2ccc(C)cc2)c1` [Compound 49, 5-(Ethyl-isobutyryl-amino)-4′-methyl-biphenyl-3-carboxylic acid ((S)-2-hydroxy-1-methyl-ethyl)-amide], the “P2X3 (pIC50 values for the P2X3 receptor)” value turned out to be 8.38.

As to `Cc1ccc(-c2cc(C(=O)NC(C)c3cnccn3)cc(N(C)C(=O)C(C)C)c2)cc1` (stereo not shown) [Compound 33, 5-(Isobutyryl-methyl-amino)-4′-methyl-biphenyl-3-carboxylic acid (1-pyrazin-2-yl-ethyl)-amide], the “P2X3 (pIC50 values for the P2X3 receptor)” value turned out to be 8.3.

In the case of `COCC(C)NC(=O)c1cc(NC(=O)c2cccs2)cc(-c2ccc(C)cc2)c1` (stereo not shown) [Compound 4, Thiophene-2-carboxylic acid [5-(2-methoxy-1-methyl-ethylcarbamoyl)-4′-methyl-biphenyl-3-yl]-amide], the “P2X3 (pIC50 values for the P2X3 receptor)” value was found to be 5.51.

In the case of `CCN(C(=O)c1cccnc1)c1cc(C(=O)NC(C)c2cnccn2)cc(-c2ccc(C)cc2)c1` (stereo not shown) [Compound 31, N-Ethyl-N-[4′-methyl-5-(1-pyrazin-2-yl-ethylcarbamoyl)-biphenyl-3-yl]-nicotinamide], the “P2X3 (pIC50 values for the P2X3 receptor)” value was 5.91.

For `CC(C)C(=O)N(C)c1cc(C(=O)NC(C)c2cnccn2)cc(-c2ccc(Cl)cc2Cl)c1` (stereo not shown) [Compound 64, 2′,4′-Dichloro-5-(isobutyryl-methyl-amino)-biphenyl-3-carboxylic acid (1-pyrazin-2-yl-ethyl)-amide], the “P2X3 (pIC50 values for the P2X3 receptor)” value is on record as 7.5.

With `CCN(C(=O)c1cnccn1)c1cc(C(=O)NC(C)c2cnccn2)cc(-c2ccc(C)cc2)c1` (stereo not shown) [Compound 27, Pyrazine-2-carboxylic acid ethyl-[4′-methyl-5-(1-pyrazin-2-yl-ethylcarbamoyl)-biphenyl-3-yl]-amide], for the setting “read-out: P2X3 (pIC50 values for the P2X3 receptor) (converted)”, the IC50 is 4.47 µM.

In the case of `Cc1ccc(-c2cc(C(=O)NC(C)c3cnccn3)cc(N(C)C(=O)C(C)(C)C)c2)cc1` (stereo not shown) [Compound 32, 5-[(2,2-Dimethyl-propionyl)-methyl-amino]-4′-methyl-biphenyl-3-carboxylic acid (1-pyrazin-2-yl-ethyl)-amide], the “P2X3 (pIC50 values for the P2X3 receptor)” value was determined as 8.01.

For `COCC(C)NC(=O)c1cc(NC(=O)c2cscc2OC)cc(-c2ccc(C)cc2)c1` (stereo not shown) [Compound 17, 4-Methoxy-thiophene-3-carboxylic acid [5-(2-methoxy-1-methyl-ethylcarbamoyl)-4′-methyl-biphenyl-3-yl]-amide], the “P2X3 (pIC50 values for the P2X3 receptor)” value amounted to 5.87.

As for `Cc1ccc(-c2cc(C(=O)NC(C)c3cnccn3)cc(N(C)C(=O)C3CCOCC3)c2)cc1` (stereo not shown) [Compound 43, Tetrahydro-pyran-4-carboxylic acid methyl-[4′-methyl-5-(1-pyrazin-2-yl-ethylcarbamoyl)-biphenyl-3-yl]-amide], the “P2X3 (pIC50 values for the P2X3 receptor)” value is 5.86.

As for `COCC(C)NC(=O)c1cc(NC(=O)c2cc(C)nn2C)cc(-c2ccc(C)cc2)c1` (stereo not shown) [Compound 15, 2,5-Dimethyl-2H-pyrazole-3-carboxylic acid [5-(2-methoxy-1-methyl-ethylcarbamoyl)-4′-methyl-biphenyl-3-yl]-amide], the “P2X3 (pIC50 values for the P2X3 receptor)” value is on record as 5.34.

Turning to `COCC(C)NC(=O)c1cc(NC(=O)c2ccc(C(F)(F)F)cc2Cl)cc(-c2ccc(C)cc2)c1` (stereo not shown) [Compound 10, 5-(2-Chloro-4-trifluoromethyl-benzoylamino)-4′-methyl-biphenyl-3-carboxylic acid (2-methoxy-1-methyl-ethyl)-amide], the “P2X3 (pIC50 values for the P2X3 receptor)” value is 5.87.

`CCC(C)(C)C(=O)N(C)c1cc(C(=O)NC(C)c2cnccn2)cc(-c2ccc(C)cc2)c1` (stereo not shown) [Compound 48, 5-[(2,2-Dimethyl-butyryl)-methyl-amino]-4′-methyl-biphenyl-3-carboxylic acid (1-pyrazin-2-yl-ethyl)-amide]: the “P2X3 (pIC50 values for the P2X3 receptor)” value came to 7.55.
